What was measured:
CYP2A6 = target: T1, CYP2A6 (Homo sapiens, UniProt P11509); test: Coumarin 7-hydroxylation in human liver microsomes; format: in vitro ADME; settings: 100 μM; 2 μM coumarin
T1 construct: Standard incubation mixtures of 0.5 ml contained microsomal protein (0.1–0.5 mg); from tissue; host or cells: pooled human liver microsomes (ten donors)
T1 sequence (P11509 1-494): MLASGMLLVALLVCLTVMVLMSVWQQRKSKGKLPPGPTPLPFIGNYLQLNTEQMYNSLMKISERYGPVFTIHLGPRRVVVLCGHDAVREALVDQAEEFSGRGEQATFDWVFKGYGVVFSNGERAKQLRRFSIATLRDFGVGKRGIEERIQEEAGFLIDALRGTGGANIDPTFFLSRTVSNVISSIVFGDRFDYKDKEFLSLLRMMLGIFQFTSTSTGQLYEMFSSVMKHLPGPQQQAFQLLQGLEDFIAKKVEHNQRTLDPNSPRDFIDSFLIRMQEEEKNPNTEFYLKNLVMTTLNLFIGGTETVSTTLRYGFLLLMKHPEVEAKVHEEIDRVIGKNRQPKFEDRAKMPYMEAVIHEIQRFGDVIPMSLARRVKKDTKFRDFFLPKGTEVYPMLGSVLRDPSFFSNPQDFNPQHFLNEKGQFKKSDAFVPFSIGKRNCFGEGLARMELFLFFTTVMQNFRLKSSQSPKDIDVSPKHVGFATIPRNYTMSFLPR

CYP2E1 = target: T2, CYP2E1 (Homo sapiens, UniProt P05181); test: Chlorzoxazone 6-hydroxylation in human liver microsomes; format: in vitro ADME; settings: 100 μM; 100 μM chlorzoxazone
T2 construct: Standard incubation mixtures of 0.5 ml contained microsomal protein (0.1–0.5 mg); from tissue; host or cells: pooled human liver microsomes (ten donors)
T2 sequence (P05181 whole entry): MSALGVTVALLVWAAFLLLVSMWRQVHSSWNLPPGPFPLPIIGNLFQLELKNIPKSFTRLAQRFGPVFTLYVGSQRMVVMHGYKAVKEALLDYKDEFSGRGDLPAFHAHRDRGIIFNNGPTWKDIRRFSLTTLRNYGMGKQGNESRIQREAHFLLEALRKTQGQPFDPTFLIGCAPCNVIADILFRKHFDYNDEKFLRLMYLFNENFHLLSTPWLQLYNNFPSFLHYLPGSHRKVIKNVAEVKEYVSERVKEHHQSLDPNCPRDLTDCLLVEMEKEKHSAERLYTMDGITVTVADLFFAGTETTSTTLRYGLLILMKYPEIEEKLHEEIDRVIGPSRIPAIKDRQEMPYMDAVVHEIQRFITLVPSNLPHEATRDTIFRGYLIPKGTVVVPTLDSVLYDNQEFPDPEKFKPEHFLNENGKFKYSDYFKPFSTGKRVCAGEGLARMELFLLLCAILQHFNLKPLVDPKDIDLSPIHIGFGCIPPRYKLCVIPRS

SMILES: CCN(CC)C(=S)S [Diethyldithiocarbamate, diethyldithiocarbamate]
- Percent of Control (CYP2A6): 38.2% of Control
- Percent of Control (CYP2E1): 55.0% of Control

Reference: article PMC1664607 (PLoS Medicine, 2006)
